Test results taken from patent publication US20230255943A1, “MMP-9 AND MMP-12 INHIBITION FOR TREATING SPINAL CORD INJURY OR RELATED INJURY TO NEUROLOGICAL TISSUE” (The University of Birmingham, priority 2020, published 2023).

What was measured:
[1] = tested on: mice with DC crush injury; experiment: Immunohistochemistry of scar tissue (laminin, Sema-3A, CS-56) at lesion site; type: in vivo, mouse; conditions: for attenuation of laminin immunoreactivity (scar tissue): 4 weeks after DC injury
From the text: After killing animals by exposure to rising concentrations of CO2, mice were intracardially perfused with 4% formaldehyde (TAAB Laboratories, Berkshire, UK) in 0.1M phosphate buffered saline (PBS). The lesion site+5 mm either side were dissected out, post-fixed in 4% formaldehyde and subjected to a graded series of sucrose solutions for cryoprotection. Spinal cords were blocked in OCT mounting compound (TAAB laboratories), sectioned longitudinally at 15 μm-thick using a cryostat (Brights Instruments, Huntingdon, UK) before being collected on charged glass slides (ThermoFisher Scientific, Loughborough, UK) and kept at −20° C. until required. Slides were numbered consecutively and sections from the middle of the lesion site were chosen for all immunohistochemical analyses, as described by previously (Surey S, Berry M, Logan A, Bicknell R, Ahmed Z. Differential cavitation, angiogenesis and wound-healing responses in injured mouse and rat spinal cords. Neuroscience 2014; 275: 62-80).
Fluorescent immunohistochemistry was performed as described previously (S. Surey, M. Berry, A. Logan, R. Bicknell, Z. Ahmed, Differential cavitation, angiogenesis and wound-healing responses in injured mouse and rat spinal cords. Neuroscience 275, 62-80 (2014)). […] Laminin was detected at 4 weeks after DC injury and treatment using a rabbit polyclonal anti-laminin primary antibody (ab11575; 1:400 dilution, Abcam). Macrophages were detected with a rabbit polyclonal anti-CD68 antibody (ab1525212; 1:500 dilution, Abcam); microglia were detected using a rabbit polyclonal antibody to CD11b (ab128797, 1:500 dilution, Abcam); GFAP was detected using a polyclonal anti-GFAP antibody (SAB5700611, 1:400 dilution, Sigma) were all detected at 10 days after DC injury and treatment. Semaphorin-3A (Sema-3A) and chondroitin sulphate proteoglycan (CSPG) was detected using monoclonal anti-CS-56 antibody (C8035; 1:200 dilution, Sigma) at 7 days after injury. […] CTB labelled axons in the mouse were detected using a goat polyclonal anti-CTB antibody (#703; 1:1000 dilution, List Biological Labs) at 6 weeks after DC injury.
All analyses were performed by investigators masked to the experimental groups. Relative fluorescent staining intensity was calculated by image analysis as described previously (Surey S, Berry M, Logan A, Bicknell R, Ahmed Z. Differential cavitation, angiogenesis and wound-healing responses in injured mouse and rat spinal cords. Neuroscience 2014; 275: 62-80). Briefly, photomicrographs taken at 5× magnification using the same standardized exposure settings throughout for each antibody were thresholded and the mean integrated intensity of pixels/unit area for each antibody was recorded Using ImageJ (NIH, USA) from n=12 mice/antibody.

IL-1β, TNF-α and IL-6 = experiment: qRT-PCR of proinflammatory pain markers after DC injury in mice; type: in vivo, mouse; conditions: for injury-induced rise of proinflammatory pain markers IL-1β, TNF-α and IL-6: 3d after DC injury
Procedure: For oral delivery of AZD1236, n=6 adult male C57BL6 mice/group (Charles River, Margate, UK) were randomly allocated to either: (1), Sham (control; partial laminectomy but no DC crush injury); (2), DC crush injury+vehicle (partial laminectomy followed by DC crush injury and injection of vehicle); (3), DC crush injury+100 mg/kg AZD1236; (4), DC crush injury+200 mg/kg AZD1236; and (5), DC crush injury+300 mg/kg AZD1236. For intrathecal (it) delivery of AZD1236, adult male C57BL6 mice (25-30 g) (Charles River, Margate, UK) were randomly allocated to either: (1), Sham (control; partial laminectomy but no DC crush injury); (2), DC crush injury+vehicle (partial laminectomy followed by DC crush injury and injection of vehicle); (3), DC crush injury+2.5 mg/kg AZD1236; (4), DC crush injury+5 mg/kg AZD1236; and (5), DC crush injury+10 mg/kg AZD1236. For intrathecal delivery an indwelling atlanto-occipital intrathecal catheter was inserted into the intrathecal space, as described previously (F. A. Oladosu, B. P. Ciszek, S. C. O'Buckley, A. G. Nackley, Novel intrathecal and subcutaneous catheter delivery systems in the mouse. J Neurosci Methods 264, 119-128 (2016)). Briefly, with mice in the sternal recumbency a small incision was made at the nape of the neck followed by detachment of the muscles on either side of the external occipital crest to expose the A-O membrane. The membrane was incised and a 6 cm Alzet mouse intrathecal catheter (Alzet, Cupertino, Calif., USA) and polyurethane segments were gently guided 2.5 cm into the intrathecal space. […]
DC crush injury was administered bilaterally at the T8 vertebral level as described previously (S. Surey, M. Berry, A. Logan, R. Bicknell, Z. Ahmed, Differential cavitation, angiogenesis and wound-healing responses in injured mouse and rat spinal cords. Neuroscience 275, 62-80 (2014); M. L. Read, S. Mir, R. Spice, R. J. Seabright, E. L. Suggate, Z. Ahmed, M. Berry, A. Logan, Profiling RNA interference (RNAi)-mediated toxicity in neural cultures for effective short interfering RNA design. J Gene Med 11, 523-534 (2009)). […]

[2] = immediate or delayed by 24 h, 7 days (8 days delayed group)

What does the source list for `C[C@]1(CS(=O)(=O)N2CC=C(C#Cc3cnc(C4CC4)nc3)CC2)NC(=O)NC1=O` [AZD1236]?
attenuation of laminin immunoreactivity (scar tissue) ([1]; 24 hour delayed): > 77%; attenuation of CS-56 immunoreactivity at the lesion site [1, 2]: > 81%; attenuation of Sema-3A immunoreactivity at the lesion site [1, 2]: > 84%; attenuation of laminin immunoreactivity (scar tissue) ([1]; immediately after injury): > 80%; injury-induced rise of proinflammatory pain markers IL-1β, TNF-α and IL-6 (IL-1β, TNF-α and IL-6; intrathecal, 5 mg/kg): reduced them to sham-treated levels; proinflammatory cytokines, 24-h delayed treatment (IL-1β, TNF-α and IL-6; optimal doses, 24 h delay vs immediate): equally as effective as immediate delivery; injury-induced rise of proinflammatory pain markers IL-1β, TNF-α and IL-6 (IL-1β, TNF-α and IL-6; oral, 200 mg/kg): reduced them to sham-treated levels
